Assay results as given in patent publication US20250114338A1, “TETRAHYDRO-PYRIDO[3,4-b]INDOLE ESTROGEN RECEPTOR MODULATORS AND USES THEREOF” (Genentech, Inc., priority 2014, published 2025).

tested on: ER-alpha MCF7; test: ER-alpha MCF7 HCS EC50; stated as measured by in vitro cell proliferation assays of Examples 902 and 903; format: cell-based; conditions: Homo sapiens, MCF7, MCF7 cells; Table 2
Summary of the method: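 MCF7 cells seeded 1000-2000 cells/well for 16 h, then treated with nine-point 1:2 DMSO dilution series in quadruplicate at 37 °C, 5% CO2 for 4 days. Viable cells quantified by CellTiter-Glo ATP luminescence; EC50 calculated. Controls: fulvestrant at final 100 nM, DMSO 0.2% v/v.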

SMILES | EC50
C[C@@H]1Cc2c([nH]c3ccccc23)[C@@H](c2c(F)cc(OC3CN(CCCCF)C3)cc2F)N1CC(C)(C)F [Example 337, (1R,3R)-1-[2,6-difluoro-4-[1-(4-fluorobutyl)azetidin-3-yl]oxy-phenyl]-2-(2-fluoro-2-methyl-propyl)-3-methyl-1,3,4,9-tetrahydropyrido[3,4-b]indole] | 0.387 nM
C[C@@H]1Cc2c([nH]c3ccccc23)[C@@H](c2cc(F)c(OC3CN(CCCCCF)C3)c(F)c2)N1CC(C)(C)F [Example 338, (1R,3R)-1-[3,5-difluoro-4-[1-(5-fluoropentyl)azetidin-3-yl]oxy-phenyl]-2-(2-fluoro-2-methyl-propyl)-3-methyl-1,3,4,9-tetrahydropyrido[3,4-b]indole] | 1 nM
C[C@@H]1Cc2c([nH]c3ccccc23)[C@@H](c2cc(F)c(OC3CN(CCCF)C3)cc2F)N1CC(C)(C)F [Example 339, (1R,3R)-1-[2,5-difluoro-4-[1-(3-fluoropropyl)azetidin-3-yl]oxy-phenyl]-2-(2-fluoro-2-methyl-propyl)-3-methyl-1,3,4,9-tetrahydropyrido[3,4-b]indole] | 1 nM
C[C@@H]1Cc2c([nH]c3ccccc23)[C@@H](c2c(F)cc(NC3CN(CCCF)C3)cc2F)N1CC(F)(F)CO [Example 340, 3-[(1R,3R)-1-[2,6-difluoro-4-[[1-(3-fluoropropyl)azetidin-3-yl]amino]phenyl]-3-methyl-1,3,4,9-tetrahydropyrido[3,4-b]indol-2-yl]-2,2-difluoro-propan-1-ol] | 0.203 nM
C[C@@H]1Cc2c([nH]c3ccccc23)[C@@H](c2cnc(OC3CN(CCCF)C3)cn2)N1CC(C)(C)F [Example 342, (1S,3R)-2-(2-fluoro-2-methylpropyl)-1-(5-((1-(3-fluoropropyl)azetidin-3-yl)oxy)pyrazin-2-yl)-3-methyl-2,3,4,9-tetrahydro-1H-pyrido[3,4-b]indole] | 0.619 nM
C[C@@H]1Cc2c([nH]c3ccccc23)[C@@H](c2c(F)cc(OC3(C)CN(CCCF)C3)cc2F)N1CC(C)(C)F [Example 343, (1R,3R)-1-(2,6-difluoro-4-((1-(3-fluoropropyl)-3-methylazetidin-3-yl)oxy)phenyl)-2-(2-fluoro-2-methylpropyl)-3-methyl-2,3,4,9-tetrahydro-1H-pyrido[3,4-b]indole] | 0.2 nM
C[C@@H]1Cc2c([nH]c3ccccc23)[C@@H](c2ccc(OC3CN(CCCF)C3)cc2C#N)N1CC(C)(C)F [Example 344, 2-[(1R,3R)-2-(2-fluoro-2-methyl-propyl)-3-methyl-1,3,4,9-tetrahydropyrido[3,4-b]indol-1-yl]-5-[1-(3-fluoropropyl)azetidin-3-yl]oxy-benzonitrile] | 0.347 nM
C[C@@H]1Cc2c([nH]c3ccccc23)[C@@H](c2ccn(CCCN3CC(CF)C3)c(=O)c2)N1CC(C)(C)F [Example 345, 4-((1R,3R)-2-(2-fluoro-2-methylpropyl)-3-methyl-2,3,4,9-tetrahydro-1H-pyrido[3,4-b]indol-1-yl)-1-(3-(3-(fluoromethyl)azetidin-1-yl)propyl)pyridin-2(1H)-one] | 12.3 nM
C[C@@H]1Cc2c([nH]c3ccccc23)[C@@H](c2ccc(C(=O)C3CN(CCCF)C3)cc2)N1CC(C)(C)F [Example 346, [4-[(1R,3R)-2-(2-fluoro-2-methyl-propyl)-3-methyl-1,3,4,9-tetrahydropyrido[3,4-b]indol-1-yl]phenyl]-[1-(3-fluoropropyl)azetidin-3-yl]methanone] | 0.399 nM
C[C@H](CN1[C@H](c2c(F)cc(OCCN3CC(CF)C3)cc2F)c2[nH]c3ccccc3c2C[C@H]1C)C(N)=O [Example 347, (R)-3-((1R,3R)-1-(2,6-difluoro-4-(2-(3-(fluoromethyl)azetidin-1-yl)ethoxy)phenyl)-3-methyl-1,3,4,9-tetrahydro-2H-pyrido[3,4-b]indol-2-yl)-2-methylpropanamide] | 14 nM
C[C@H](CN1[C@H](c2c(F)cc(OC3CN(CCCF)C3)cc2F)c2[nH]c3ccccc3c2C[C@H]1C)C(=O)O [Example 348, (R)-3-((1R,3R)-1-(2,6-difluoro-4-((1-(3-fluoropropyl)azetidin-3-yl)oxy)phenyl)-3-methyl-1,3,4,9-tetrahydro-2H-pyrido[3,4-b]indol-2-yl)-2-methylpropanoic acid] | 1 nM
C[C@@H]1Cc2c([nH]c3ccccc23)[C@@H](c2c(F)cc(OC3CN(CCCF)C3)cc2F)N1C[C@H](C)C(=O)O [Example 349, (S)-3-((1R,3R)-1-(2,6-difluoro-4-((1-(3-fluoropropyl)azetidin-3-yl)oxy)phenyl)-3-methyl-1,3,4,9-tetrahydro-2H-pyrido[3,4-b]indol-2-yl)-2-methylpropanoic acid] | 2.03 nM
CC(CN1C(C)Cc2c([nH]c3ccccc23)C1c1c(F)cc(OC2CN(CCCF)C2)cc1F)C(=O)O (stereo not shown) [Example 351, 3-[1-[2,6-difluoro-4-[1-(3-fluoropropyl)azetidin-3-yl]oxy-phenyl]-3-methyl-1,3,4,9-tetrahydropyrido[3,4-b]indol-2-yl]-2-methyl-propanoic acid] | 33 nM

The next lines start with the values.

EC50 | SMILES
0.685 nM | C[C@@H]1Cc2c([nH]c3ccccc23)[C@@H](c2c(F)cc(NCCN3CC(CF)C3)cc2F)N1C[C@@](C)(F)CO [Example 352, (R)-3-((1R,3R)-1-(2,6-difluoro-4-((2-(3-(fluoromethyl)azetidin-1-yl)ethyl)amino)phenyl)-3-methyl-1,3,4,9-tetrahydro-2H-pyrido[3,4-b]indol-2-yl)-2-fluoro-2-methylpropan-1-ol]
0.033 nM | C[C@@H]1Cc2c([nH]c3ccccc23)[C@@H](c2c(F)cc(NCCN3CC(CF)C3)cc2F)N1C[C@](C)(F)CO [Example 353, (S)-3-((1R,3R)-1-(2,6-difluoro-4-((2-(3-(fluoromethyl)azetidin-1-yl)ethyl)amino)phenyl)-3-methyl-1,3,4,9-tetrahydro-2H-pyrido[3,4-b]indol-2-yl)-2-fluoro-2-methylpropan-1-ol]
1 nM | C[C@H](CN1[C@H](c2c(F)cc(NC3CN(CCCF)C3)cc2F)c2[nH]c3ccccc3c2C[C@H]1C)C(=O)O [Example 354, (2R)-3-[(1R,3R)-1-[2,6-difluoro-4-[[1-(3-fluoropropyl)azetidin-3-yl]amino]phenyl]-3-methyl-1,3,4,9-tetrahydropyrido[3,4-b]indol-2-yl]-2-methyl-propanoic acid]
29.2 nM | C[C@H]1Cc2c([nH]c3ccc(F)cc23)[C@H](c2c(F)cc(OCCN3CC(CF)C3)cc2F)N1CC(F)(F)F [Example 355, (1S,3S)-1-(2,6-difluoro-4-(2-(3-(fluoromethyl)azetidin-1-yl)ethoxy)phenyl)-6-fluoro-3-methyl-2-(2,2,2-trifluoroethyl)-2,3,4,9-tetrahydro-1H-pyrido[3,4-b]indole]
0.509 nM | C[C@@H]1Cc2c([nH]c3ccc(F)cc23)[C@@H](c2c(F)cc(OCCN3CC(CF)C3)cc2F)N1CC(F)(F)F [Example 356, (1R,3R)-1-(2,6-difluoro-4-(2-(3-(fluoromethyl)azetidin-1-yl)ethoxy)phenyl)-6-fluoro-3-methyl-2-(2,2,2-trifluoroethyl)-2,3,4,9-tetrahydro-1H-pyrido[3,4-b]indole]
26.1 nM | C[C@H]1Cc2c([nH]c3ccc(F)cc23)[C@H](c2c(F)cc(OC3CN(CCCF)C3)cc2F)N1CC(F)(F)F [Example 357, (1S,3S)-1-(2,6-difluoro-4-((1-(3-fluoropropyl)azetidin-3-yl)oxy)phenyl)-6-fluoro-3-methyl-2-(2,2,2-trifluoroethyl)-2,3,4,9-tetrahydro-1H-pyrido[3,4-b]indole]
0.417 nM | C[C@@H]1Cc2c([nH]c3ccc(F)cc23)[C@@H](c2c(F)cc(OC3CN(CCCF)C3)cc2F)N1CC(F)(F)F [Example 358, (1R,3R)-1-(2,6-difluoro-4-((1-(3-fluoropropyl)azetidin-3-yl)oxy)phenyl)-6-fluoro-3-methyl-2-(2,2,2-trifluoroethyl)-2,3,4,9-tetrahydro-1H-pyrido[3,4-b]indole]
0.552 nM | C[C@@H]1Cc2c([nH]c3ccc(F)cc23)[C@@H](c2c(F)cc(OCCN3CC(CF)C3)cc2F)N1CC(F)(F)CO [Example 359, 3-((1R,3R)-1-(2,6-difluoro-4-(2-(3-(fluoromethyl)azetidin-1-yl)ethoxy)phenyl)-6-fluoro-3-methyl-1,3,4,9-tetrahydro-2H-pyrido[3,4-b]indol-2-yl)-2,2-difluoropropan-1-ol]
9 nM | C[C@H]1Cc2c([nH]c3ccc(F)cc23)[C@H](c2c(F)cc(OCCN3CC(CF)C3)cc2F)N1CC(F)(F)CO [Example 360, 3-((1S,3S)-1-(2,6-difluoro-4-(2-(3-(fluoromethyl)azetidin-1-yl)ethoxy)phenyl)-6-fluoro-3-methyl-1,3,4,9-tetrahydro-2H-pyrido[3,4-b]indol-2-yl)-2,2-difluoropropan-1-ol]
3 nM | C[C@@H]1Cc2c([nH]c3ccccc23)[C@@H](c2c(F)cc(OCCN3CC(CF)C3)cc2F)N1CCC(F)(F)F [Example 361, (1R,3R)-1-[2,6-difluoro-4-[2-[3-(fluoromethyl)azetidin-1-yl]ethoxy]phenyl]-3-methyl-2-(3,3,3-trifluoropropyl)-1,3,4,9-tetrahydropyrido[3,4-b]indole]
> 100 nM | C[C@@H]1Cc2c([nH]c3ccccc23)[C@H](c2c(F)cc(OCCN3CC(CF)C3)cc2F)N1CCC(F)(F)F [Example 362, (1S,3R)-1-[2,6-difluoro-4-[2-[3-(fluoromethyl)azetidin-1-yl]ethoxy]phenyl]-3-methyl-2-(3,3,3-trifluoropropyl)-1,3,4,9-tetrahydropyrido[3,4-b]indole]
0.166 nM | C[C@@H]1Cc2c([nH]c3ccc(F)cc23)[C@@H](c2c(F)cc(OC3CN(CCCF)C3)cc2F)N1CC(F)(F)CO [Example 363, 3-((1R,3R)-1-(2,6-difluoro-4-((1-(3-fluoropropyl)azetidin-3-yl)oxy)phenyl)-6-fluoro-3-methyl-1,3,4,9-tetrahydro-2H-pyrido[3,4-b]indol-2-yl)-2,2-difluoropropan-1-ol]
